Test results as given in doi:10.1101/2021.05.17.444542v1, “Structure Activity Relationship of USP5 Allosteric Inhibitors” (biorxiv, 2021).

Each compound was assayed against T1, USP5 ZnF-UBD (USP5 171-290) (Homo sapiens, UniProt P45974). Details: FITC-ubiquitin displacement, N=1; 100 µM; inhibitor.
T1 sequence (P45974 171-290): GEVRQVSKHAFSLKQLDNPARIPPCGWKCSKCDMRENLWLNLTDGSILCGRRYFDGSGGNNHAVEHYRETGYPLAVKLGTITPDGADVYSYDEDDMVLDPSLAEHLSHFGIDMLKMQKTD

Row | SMILES | % inhibition
1 | O=C(O)CCC(=O)c1cccc(NS(=O)(=O)c2c[nH]c3ncccc23)c1 [S1] | 40%
2 | Cc1ccc(C(=O)O)cc1S(=O)(=O)Nc1cccc(C(=O)CCC(=O)O)c1 [S2] | 36%
3 | CC(CC(=O)c1cccc(-c2ccc3c(c2)CCCO3)c1)C(=O)O (stereo not drawn) [S3] | 31%
4 | CN(c1ccc(S(C)(=O)=O)cc1)S(=O)(=O)c1ccc(C(=O)CCC(=O)O)cc1 [S4] | 61%
5 | CCCn1nc(C)c(-c2ccc(OC)c(C(=O)CCC(=O)O)c2)c1C [S7] | 32%
6 | Cc1ccc(OC(C)CNS(=O)(=O)c2ccc(C(=O)CCC(=O)O)cc2)cc1 (stereo not drawn) [S8] | 37%

Further lines, results first:

Row | % inhibition | SMILES
7 | 50% | O=C(O)CCC(=O)c1cccc(NS(=O)(=O)c2c[nH]c(C(=O)N3CCCC3)c2)c1 [S5]
8 | 3% | O=C(O)CCC(=O)c1cccc(NS(=O)(=O)c2cc(F)cc(C(=O)O)c2)c1 [S6]
9 | 26% | O=C(O)CCC(=O)c1cccc(NS(=O)(=O)c2ccc(Cl)c(C(=O)O)c2)c1 [S9]
